In US7951794B2, “Thiophene derivatives” (Actelion Pharmaceuticals Ltd., priority 2005, dated 2011):

The molecules below were run against recombinant human S1P1 receptor (Homo sapiens, UniProt P21453) (assay: GTPγS assay to determine EC50 values). Conditions: 35S-GTPγS binding, membrane preparations of CHO cells expressing recombinant human S1P1 receptor, pH 7.4.
Assay type: biochemical
Experimental: GTPγS binding assays are performed in 96 well microtiter plates (Nunc, 442587) in a final volume of 200 μl, using membrane preparations of CHO cells expressing recombinant human S1P1 receptor. Assay conditions are 20 mM Hepes (Fluka, 54461), 100 mM NaCl (Fluka, 71378), 5 mM MgCl2 (Fluka, 63064), 0.1% BSA (Calbiochem, 126609), 1 μM GDP (Sigma, G-7127), 2.5% DMSO (Fluka, 41644), […] ^35S-GTPγS (Amersham Biosciences, SJ1320). The pH is 7.4. Test compounds are dissolved and diluted in 100% DMSO and pre-incubated at room temperature for 30 min in 150 μl of the above assay buffer, in the absence of ^35S-GTPγS. After addition of 50 μl of ^35S-GTPγS, the assay is incubated for 1 h at room temperature.
The assay is terminated by transfer of the reaction mixture to a Multiscreen plate (Millipore, MAHFC1H60) using a cell harvester from Packard Biosciences, and the plates are washed with ice-cold 10 mM Na2HPO4/NaH2PO4 (70%/30%), dried, sealed at the bottom and, after addition of 25 μl MicroScint20 (Packard Biosciences, order no. 6013621), sealed on the top. Membrane-bound ^35S-GTPγS is measured with a TopCount from Packard Biosciences.
EC50 is the concentration of agonist inducing 50% of the maximal specific ^35S-GTPγS binding. Specific binding is determined by subtracting non-specific binding from maximal binding. Maximal binding is the amount of cpm bound to the Multiscreen plate in the presence of 10 μM of S1P. Non-specific binding is the amount of binding in the absence of an agonist in the assay.

Sequence of recombinant human S1P1 receptor (P21453 whole entry): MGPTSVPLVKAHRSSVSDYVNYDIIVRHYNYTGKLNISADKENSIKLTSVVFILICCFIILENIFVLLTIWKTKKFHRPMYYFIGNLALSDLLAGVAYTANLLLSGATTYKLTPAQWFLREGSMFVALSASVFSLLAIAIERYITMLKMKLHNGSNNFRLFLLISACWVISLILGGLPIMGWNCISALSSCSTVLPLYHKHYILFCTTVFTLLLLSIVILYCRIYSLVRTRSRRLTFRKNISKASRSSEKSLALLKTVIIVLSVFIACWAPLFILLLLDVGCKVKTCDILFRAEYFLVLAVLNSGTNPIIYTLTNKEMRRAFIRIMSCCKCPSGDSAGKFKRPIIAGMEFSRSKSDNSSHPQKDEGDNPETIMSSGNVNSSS

Structure (SMILES) | EC50 [nM]
CCCc1sc(C(=O)CCc2cc(C)c(OC[C@@H](O)CO)c(C)c2)cc1-c1ccccc1 [Example 24, 3-[4-((S)-2,3-dihydroxy-propoxy)-3,5-dimethyl-phenyl]-1-(4-phenyl-5-propyl-thiophen-2-yl)-propan-1-one] | 16.4
CCc1sc(C(=O)CCc2cc(C)c(CC(O)CO)c(C)c2)cc1-c1ccccc1 (stereo not shown) [Example 11, 3-[4-(2,3-dihydroxy-propyl)-3,5-dimethyl-phenyl]-1-(5-ethyl-4-phenyl-thiophen-2-yl)-propan-1-one] | 18.3
CCc1sc(C(=O)CCc2cc(C)c(OC[C@@H](O)CO)c(C)c2)cc1-c1ccccc1C [Example 20, 3-[4-((S)-2,3-dihydroxy-propoxy)-3,5-dimethyl-phenyl]-1-(5-ethyl-4-o-tolyl-thiophen-2-yl)-propan-1-one] | 6.3
CCc1sc(C(=O)CCc2cc(C)c(OC[C@@H](O)CO)c(C)c2)cc1-c1ccccc1 [Example 10, 3-[4-((S)-2,3-dihydroxy-propoxy)-3,5-dimethyl-phenyl]-1-(5-ethyl-4-phenyl-thiophen-2-yl)-propan-1-one] | 6.7

Other lines, results leading:

EC50 [nM] | Structure (SMILES)
11.5 | CCc1sc(C(=O)CCc2cc(C)c(OC[C@@H](O)CO)c(C)c2)cc1-c1ccccc1OC [Example 50]
9.3 | CCc1ccccc1-c1cc(C(=O)CCc2cc(C)c(OC[C@@H](O)CO)c(C)c2)sc1CC [Example 31]

What follows are molecules tested on circulating lymphocytes (assay: Assessment of in vivo efficacy: circulating lymphocytes after oral administration). Conditions: 3 h after oral administration of 10 mg/kg to normotensive male Wistar rats, compared to vehicle-treated group.
Experimental: The efficacy of the compounds of Formula (I) is assessed by measuring the circulating lymphocytes after oral administration of 3 to 30 mg/kg of a compound of Formula (I) to normotensive male Wistar rats. The animals are housed in climate-controlled conditions with a 12 h-light/dark cycle, and have free access to normal rat chow and drinking water. Blood is collected before and 3, 6 and 24 h after drug administration. Full blood is subjected to hematology using Advia Hematology system (Bayer Diagnostics, Zürich, Switzerland).
All data are presented as mean±SEM. Statistical analyses are performed by analysis of variance (ANOVA) using Statistica (StatSoft) and the Student-Newman-Keuls procedure for multiple comparisons. The null hypothesis is rejected when p<0.05.

Structure (SMILES) | Lymphocyte counts [%]
CCc1sc(C(=O)CCc2cc(C)c(OC[C@@H](O)CO)c(C)c2)cc1-c1ccccc1 [Example 10, 3-[4-((S)-2,3-dihydroxy-propoxy)-3,5-dimethyl-phenyl]-1-(5-ethyl-4-phenyl-thiophen-2-yl)-propan-1-one] | −48.5
